# Reference: the supplement of paper PMC11208160
# Tests used:
# [1] = recombinant barcode read abundance after kanamycin selection (control-corrected) (log10(CPM+1)); higher = more efficient recombination; sequences stand for … in AGTGCAGAGAAAATCGGCCAGTTTTCTCTGCCTGCAGTCCGCATGCCGT…ATTTATGCAGCGGACTGCCTTTCTCCCAAAGTGATAAACCGGACAGTATCATGGACCGGTTTTCCCGGTAATCCGTATTTGCAAGGTTGGTTTCACT; site = the 11-nt target
# Protocol: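 Same pooled E. coli target screen (IS621 bridge recombinase, kanamycin selection, control-corrected CPM, mean of 2 biological replicates). Here the two core-binding nucleotides of the LTG and RTG of the bridge RNA target-binding loop are mutated. Target and donor CT cores are held constant, and the other 9 guide positions match the target. The target is read from the library oligo sequence. Molecule = full bridge RNA written as DNA: nt 1-80 from the library oligo, rest WT scaffold.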
# [2] = recombinant barcode read abundance after kanamycin selection (control-corrected) (log10(CPM+1)); higher = more efficient recombination; sequences stand for … in AGTGCAGAGAAAATCGGCCAGTTTTCTCTGCCTGCAGTCCGCATGCCGT…AGATTTATGCAGCGGACTGCCTTTCTCCCAAAGTGATAAACCGGACAGTATCATGGACCGGTTTTCCCGGTAATCCGTATTTGCAAGGTTGGTTTCACT; site = the 11-nt target
# In short: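 A promoter, a target, a barcode and the first 104 bridge RNA bases under J23119 made up each oligo. Oligos were Gibson-cloned into a vector bearing the other 73 bp and a T7-inducible recombinase, then co-electroporated into E. coli with a donor plasmid and plated in duplicate on chloramphenicol/ampicillin LB agar (control) or chloramphenicol/ampicillin/kanamycin with 0.1 mM IPTG. Recombination efficiency is the averaged, control-corrected counts per million of recombinant-junction barcodes. Reported values are log10(CPM+1).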
sequence,measurement,setting,value
"AAACACAAATGGGTTCTAACCTGTTGCCTAG [AAACACACTAG_LTGcore_AA_RTGcore_CT] (site AAACACACTAG) (LTG core: AA, RTG core: CT)",recombinant barcode read abundance (log10),[1],0.0621
"AAACACAATTGGGTTCTAACCTGTTGCCTAG [AAACACACTAG_LTGcore_AT_RTGcore_CT] (site AAACACACTAG) (LTG core: AT, RTG core: CT)",recombinant barcode read abundance (log10),[1],0.375
"AAACACACCTGGGTTCTAACCTGTTGCCTAG [AAACACACTAG_LTGcore_CC_RTGcore_CT] (site AAACACACTAG) (LTG core: CC, RTG core: CT)",recombinant barcode read abundance (log10),[1],0.633
"AAACACACGTGGGTTCTAACCTGTTGCCTCG [AAACACACTAG_LTGcore_CG_RTGcore_CG] (site AAACACACTAG) (LTG core: CG, RTG core: CG)",recombinant barcode read abundance (log10),[1],0.296
"AAACACACTTGGGTTCTAACCTGTTGCCTAT [AAACACACTAG_LTGcore_CT_RTGcore_AT] (site AAACACACTAG) (LTG core: CT, RTG core: AT)",recombinant barcode read abundance (log10),[1],0.39
"AAACACATATGGGTTCTAACCTGTTGCCTAG [AAACACACTAG_LTGcore_TA_RTGcore_CT] (site AAACACACTAG) (LTG core: TA, RTG core: CT)",recombinant barcode read abundance (log10),[1],0.104
"AAACACATATGGGTTCTAACCTGTTGCCTTA [AAACACACTAG_LTGcore_TA_RTGcore_TA] (site AAACACACTAG) (LTG core: TA, RTG core: TA)",recombinant barcode read abundance (log10),[1],0.146
"AAACAGTACTGGGTTCTAACCTGTTGCCTGT [AAACAGTCTAG_LTGcore_AC_RTGcore_AC] (site AAACAGTCTAG) (LTG core: AC, RTG core: AC)",recombinant barcode read abundance (log10),[1],0.114
"AAACAGTAGTGGGTTCTAACCTGTTGCCTAG [AAACAGTCTAG_LTGcore_AG_RTGcore_CT] (site AAACAGTCTAG) (LTG core: AG, RTG core: CT)",recombinant barcode read abundance (log10),[1],0.0711
"AAACAGTCTTGGGTTCTAACCTGTTGCCTCA [AAACAGTCTAG_LTGcore_CT_RTGcore_TG] (site AAACAGTCTAG) (LTG core: CT, RTG core: TG)",recombinant barcode read abundance (log10),[1],0.601
"AAACAGTCTTGGGTTCTAACCTGTTGCCTGC [AAACAGTCTAG_LTGcore_CT_RTGcore_GC] (site AAACAGTCTAG) (LTG core: CT, RTG core: GC)",recombinant barcode read abundance (log10),[1],1.44
"AAACAGTCTTGGGTTCTAACCTGTTGCCTTG [AAACAGTCTAG_LTGcore_CT_RTGcore_CA] (site AAACAGTCTAG) (LTG core: CT, RTG core: CA)",recombinant barcode read abundance (log10),[1],1.28
"AAACAGTTCTGGGTTCTAACCTGTTGCCTAG [AAACAGTCTAG_LTGcore_TC_RTGcore_CT] (site AAACAGTCTAG) (LTG core: TC, RTG core: CT)",recombinant barcode read abundance (log10),[1],0.0714
"AAACATGCGTGGGTTCTAACCTGTTGCCTAG [AAACATGCTAG_LTGcore_CG_RTGcore_CT] (site AAACATGCTAG) (LTG core: CG, RTG core: CT)",recombinant barcode read abundance (log10),[1],0.0702
"AAACATGCTTGGGTTCTAACCTGTTGCCTAA [AAACATGCTAG_LTGcore_CT_RTGcore_TT] (site AAACATGCTAG) (LTG core: CT, RTG core: TT)",recombinant barcode read abundance (log10),[1],0.344
"AAACATGCTTGGGTTCTAACCTGTTGCCTCC [AAACATGCTAG_LTGcore_CT_RTGcore_GG] (site AAACATGCTAG) (LTG core: CT, RTG core: GG)",recombinant barcode read abundance (log10),[1],0.177
"AAACATGCTTGGGTTCTAACCTGTTGCCTGG [AAACATGCTAG_LTGcore_CT_RTGcore_CC] (site AAACATGCTAG) (LTG core: CT, RTG core: CC)",recombinant barcode read abundance (log10),[1],0.713
"AAACATGGATGGGTTCTAACCTGTTGCCTAG [AAACATGCTAG_LTGcore_GA_RTGcore_CT] (site AAACATGCTAG) (LTG core: GA, RTG core: CT)",recombinant barcode read abundance (log10),[1],0.0906
"AAACATGTATGGGTTCTAACCTGTTGCCTTA [AAACATGCTAG_LTGcore_TA_RTGcore_TA] (site AAACATGCTAG) (LTG core: TA, RTG core: TA)",recombinant barcode read abundance (log10),[1],0.0913
"ACGGGACATTGGGTTCTAACCTGTTGCAGAT [ACGGGACCTCT_LTGcore_AT_RTGcore_AT] (site ACGGGACCTCT) (LTG core: AT, RTG core: AT)",recombinant barcode read abundance (log10),[1],0.134
"ACGGGACCGTGGGTTCTAACCTGTTGCAGCG [ACGGGACCTCT_LTGcore_CG_RTGcore_CG] (site ACGGGACCTCT) (LTG core: CG, RTG core: CG)",recombinant barcode read abundance (log10),[1],0.086
"ACGGGACCTTGGGTTCTAACCTGTTGCAGAA [ACGGGACCTCT_LTGcore_CT_RTGcore_TT] (site ACGGGACCTCT) (LTG core: CT, RTG core: TT)",recombinant barcode read abundance (log10),[1],0.387
"ACGGGACCTTGGGTTCTAACCTGTTGCAGCT [ACGGGACCTCT_LTGcore_CT_RTGcore_AG] (site ACGGGACCTCT) (LTG core: CT, RTG core: AG)",recombinant barcode read abundance (log10),[1],1.07
"ACGGGACCTTGGGTTCTAACCTGTTGCAGGC [ACGGGACCTCT_LTGcore_CT_RTGcore_GC] (site ACGGGACCTCT) (LTG core: CT, RTG core: GC)",recombinant barcode read abundance (log10),[1],0.944
"ACGGGACTATGGGTTCTAACCTGTTGCAGTA [ACGGGACCTCT_LTGcore_TA_RTGcore_TA] (site ACGGGACCTCT) (LTG core: TA, RTG core: TA)",recombinant barcode read abundance (log10),[1],0.0155
TTGGCCGCTTGGGTTCTAACCTGTTGCCT (site TTGGACGCTAG),recombinant barcode read abundance (log10),[2],0.109
TTGGCCGCTTGGGTTCTAACCTGTTGCCT (site TTGGCCGCTAG),recombinant barcode read abundance (log10),[2],1.65
TTGGCCGCTTGGGTTCTAACCTGTTGCCT (site TTGGGCGCTAG),recombinant barcode read abundance (log10),[2],0.374
TTGGCCGCTTGGGTTCTAACCTGTTGCCT (site TTGGTCGCTAG),recombinant barcode read abundance (log10),[2],0.148
TTGGGGTCTTGGGTTCTAACCTGTTGCCT (site GTAGGGTCTAG),recombinant barcode read abundance (log10),[2],0.155
TTGGGGTCTTGGGTTCTAACCTGTTGCCT (site TTGGGGTCTAG),recombinant barcode read abundance (log10),[2],1.65
TTGGGTCCTTGGGTTCTAACCTGTTGCGT (site TTGAGTCCTAG),recombinant barcode read abundance (log10),[2],0.15
TTGGGTCCTTGGGTTCTAACCTGTTGCGT (site TTGGGTCCTAC),recombinant barcode read abundance (log10),[2],3.32
TTGGTCACTTGGGTTCTAACCTGTTGCCA (site GGAAGGCCTAA),recombinant barcode read abundance (log10),[2],0.0841
TTGGTCACTTGGGTTCTAACCTGTTGCCA (site TTGGTCACTTG),recombinant barcode read abundance (log10),[2],0.525
TTGGTCCCTTGGGTTCTAACCTGTTGCCT (site TTGGTACCTAG),recombinant barcode read abundance (log10),[2],0.565
TTGGTCCCTTGGGTTCTAACCTGTTGCCT (site TTGGTCCCTAG),recombinant barcode read abundance (log10),[2],2.93
TTGGTCCCTTGGGTTCTAACCTGTTGCCT (site TTGGTGCCTAG),recombinant barcode read abundance (log10),[2],0.0514
TTGGTCCCTTGGGTTCTAACCTGTTGCCT (site TTGGTTCCTAG),recombinant barcode read abundance (log10),[2],0.131
TTGTATACTTGGGTTCTAACCTGTTGCCT (site GTGTCTACTAG),recombinant barcode read abundance (log10),[2],0.129
TTGTATACTTGGGTTCTAACCTGTTGCCT (site TTGTATACTAG),recombinant barcode read abundance (log10),[2],0.612
TTGTGAGCTTGGGTTCTAACCTGTTGCGG (site TTGTAAGCTCG),recombinant barcode read abundance (log10),[2],0.037
TTGTGAGCTTGGGTTCTAACCTGTTGCGG (site TTGTGAGCTCC),recombinant barcode read abundance (log10),[2],1.15
